US20240376108A1, “SALT AND CRYSTAL FORM OF PYRAZOLE-CONTAINING POLYCYCLIC DERIVATIVE, AND PREPARATION METHOD THEREFOR AND USE THEREOF” (Shanghai Hansoh Biomedical Co., Ltd., priority 2021, published 2024)
Converted amounts (≈) assume the structure as drawn.

Key:
Format in all cases: physicochemical
[1] = Screening of the salt form and of the crystal form of the salt; conditions: 40 to 50° C., stirred overnight
Protocol: 2.1 Screening of the salt form of the compound
2.1.1 Experimental objective: To screen the salt form of the compound.
Salt forming by solventing out or suspension: 10 mg of compound 2-(2-cyano-5-oxo-8-(trifluoromethyl)pyrazolo[1,5-a]pyrido[3,2-e]pyrimidin-4(5H)-yl)-N-(5-fluoropyridin-2-yl)acetamide was weighed, to which 200 μL to 400 μL of solvent was added. The solution was stirred at 40 to 50° C., to which different acids were added respectively. The solution was stirred overnight, cooled to room temperature, filtered, and dried to obtain the salt of the compound.
3.1 Study on the crystal form of the salt of 2-(2-cyano-5-oxo-8-(trifluoromethyl)pyrazolo[1,5-a]pyrido[3,2-e]pyrimidin-4(5H)-yl)-N-(5-fluoropyridin-2-yl)acetamide
3.1.1 Experimental objective: To screen the salt of compound 2-(2-cyano-5-oxo-8-(trifluoromethyl)pyrazolo[1,5-a]pyrido[3,2-e]pyrimidin-4(5H)-yl)-N-(5-fluoropyridin-2-yl)acetamide that can form a crystal form.
2) Operating procedures: Salt forming by solventing out or suspension: 10 mg of the compound was weighed, to which 200 μL to 400 μL of solvent was added. The solution was stirred at 40 to 50° C., to which different acids were added respectively. The solution was stirred overnight, cooled to room temperature, filtered, and dried to obtain the salt of the compound.

[2] = Hygroscopicity experiment (DVS); conditions: 25° C.
Description: 7.1 Hygroscopicity experiment of crystal forms of different salts of compound 2-(2-cyano-5-oxo-8-(trifluoromethyl)pyrazolo[1,5-a]pyrido[3,2-e]pyrimidin-4(5H)-yl)-N-(5-fluoropyridin-2-yl)acetamide
7.1.1 Experimental objective: To investigate the hygroscopicity of crystal forms of different salts of compound 2-(2-cyano-5-oxo-8-(trifluoromethyl)pyrazolo[1,5-a]pyrido[3,2-e]pyrimidin-4(5H)-yl)-N-(5-fluoropyridin-2-yl)acetamide at different relative humidity, so as to provide a basis for storage.
7.1.2 Experimental protocol: Crystal forms of different salts of the compound were placed in saturated water vapor with different relative humidity to achieve dynamic equilibrium between the compound and water vapor, and the percentage of hygroscopic weight gain of the compound after equilibrium was calculated.

[3] = Solubility experiment in different media; conditions: room temperature, 24 hours
Protocol: The vials were placed on a spin mixer overnight at room temperature. After 24 hours, the sample solution was filtered through a 0.45 μm mixed aqueous fiber membrane. The content of the compound in the filtrate was determined by HPLC. [table]

[4] = solvent Dichloromethane (400 μL)
[5] = solvent Tetrahydrofuran (200 μL)
[6] = Cycle 1, target relative humidity 0.0%
[7] = Cycle 1, target relative humidity 10.0%
[8] = Cycle 1, target relative humidity 20.0%
[9] = Cycle 1, target relative humidity 30.0%
[10] = Cycle 1, target relative humidity 40.0%
[11] = Cycle 1, target relative humidity 50.0%
[12] = Cycle 1, target relative humidity 60.0%
[13] = Cycle 1, target relative humidity 70.0%
[14] = Cycle 1, target relative humidity 80.0%
[15] = Cycle 1, target relative humidity 90.0%
[16] = Cycle 1, target relative humidity 95.0%
[17] = Cycle 2, target relative humidity 0.0%
[18] = Cycle 2, target relative humidity 10.0%
[19] = Cycle 2, target relative humidity 20.0%
[20] = Cycle 2, target relative humidity 30.0%
[21] = Cycle 2, target relative humidity 40.0%
[22] = Cycle 2, target relative humidity 50.0%
[23] = Cycle 2, target relative humidity 60.0%
[24] = Cycle 2, target relative humidity 70.0%
[25] = Cycle 2, target relative humidity 80.0%
[26] = Cycle 2, target relative humidity 90.0%
[27] = Cycle 2, target relative humidity 95.0%

## CCS(=O)(=O)O [Ethanesulfonic acid]
[1]; solvent 2-Butanone (250 μL)
  Results (salt forming with acid, 1M in EtOH): Crystal form
[1]; solvent Acetone (400 μL)
  Results (salt forming with acid, 1M in EtOH): Crystal form
[1]; [4]
  Results (salt forming with acid, 1M in EtOH): Crystal form
[1]; solvent Methanol (400 μL)
  Results (salt forming with acid, 1M in EtOH): Crystal form
[1]; [5]
  Results (salt forming with acid, 1M in EtOH): Crystal form

## Br [Hydrobromic acid]
[1]; solvent 2-Butanone (250 μL)
  Results (salt forming with acid, 1M in EtOH): Crystal form
[1]; solvent Acetone (400 μL)
  Results (salt forming with acid, 1M in EtOH): Crystal form
[1]; [4]
  Results (salt forming with acid, 1M in EtOH): Crystal form
[1]; solvent Methanol (400 μL)
  Results (salt forming with acid, 1M in EtOH): Crystal form
[1]; [5]
  Results (salt forming with acid, 1M in EtOH): Crystal form

## Cl [Hydrochloric acid]
[1]; solvent 2-Butanone (250 μL)
  Results (salt forming with acid, 1M in EtOH): Crystal form
[1]; solvent Acetone (400 μL)
  Results (salt forming with acid, 1M in EtOH): Crystal form
[1]; [4]
  Results (salt forming with acid, 1M in EtOH): Crystal form
[1]; solvent Methanol (400 μL)
  Results (salt forming with acid, 1M in EtOH): Crystal form
[1]; [5]
  Results (salt forming with acid, 1M in EtOH): Crystal form

## Cl.N#Cc1cc2n(CC(=O)Nc3ccc(F)cn3)c(=O)c3ccc(C(F)(F)F)nc3n2n1 [Hydrochloride (crystal form A), 2-(2-cyano-5-oxo-8-(trifluoromethyl)pyrazolo[1,5-a]pyrido[3,2-e]pyrimidin-4(5H)-yl)-N-(5-fluoropyridin-2-yl)acetamide hydrochloride]
[2]; [6]
  % percentage of mass change, Desorption: −0.041%
  % percentage of mass change, Sorption: 0.000%
[2]; [7]
  % percentage of mass change, Desorption: 0.130%
  % percentage of mass change, Sorption: 0.131%
[2]; [8]
  % percentage of mass change, Desorption: 0.313%
  % percentage of mass change, Sorption: 0.275%
[2]; [9]
  % percentage of mass change, Desorption: 7.258%
  % percentage of mass change, Sorption: 4.325%
[2]; [10]
  % percentage of mass change, Desorption: 7.532%
  % percentage of mass change, Sorption: 7.346%
[2]; [11]
  % percentage of mass change, Desorption: 7.722%
  % percentage of mass change, Sorption: 7.466%
[2]; [12]
  % percentage of mass change, Desorption: 7.825%
  % percentage of mass change, Sorption: 7.581%
[2]; [13]
  % percentage of mass change, Desorption: 7.898%
  % percentage of mass change, Sorption: 7.709%
[2]; [14]
  % percentage of mass change, Desorption: 7.968%
  % percentage of mass change, Sorption: 7.840%
[2]; [15]
  % percentage of mass change, Desorption: 8.071%
  % percentage of mass change, Sorption: 8.018%
[2]; [16]
  % percentage of mass change, Desorption: 8.141%
  % percentage of mass change, Sorption: 8.141%
[2]; [17]
  % percentage of mass change, Desorption: −0.062%
  % percentage of mass change, Sorption: −0.041%
[2]; [18]
  % percentage of mass change, Desorption: 0.098%
  % percentage of mass change, Sorption: 0.095%
[2]; [19]
  % percentage of mass change, Desorption: 0.273%
  % percentage of mass change, Sorption: 0.236%
[2]; [20]
  % percentage of mass change, Desorption: 7.191%
  % percentage of mass change, Sorption: 5.345%
[2]; [21]
  % percentage of mass change, Desorption: 7.462%
  % percentage of mass change, Sorption: 7.269%
[2]; [22]
  % percentage of mass change, Desorption: 7.649%
  % percentage of mass change, Sorption: 7.383%
[2]; [23]
  % percentage of mass change, Desorption: 7.738%
  % percentage of mass change, Sorption: 7.492%
[2]; [24]
  % percentage of mass change, Desorption: 7.806%
  % percentage of mass change, Sorption: 7.610%
[2]; [25]
  % percentage of mass change, Desorption: 7.872%
  % percentage of mass change, Sorption: 7.745%
[2]; [26]
  % percentage of mass change, Desorption: 7.972%
  % percentage of mass change, Sorption: 7.925%
[2]; [27]
  % percentage of mass change, Desorption: 8.047%
  % percentage of mass change, Sorption: 8.047%

## CS(=O)(=O)O [Methanesulfonic acid]
[1]; solvent 2-Butanone (250 μL)
  Results (salt forming with acid, 1M in EtOH): Crystal form
[1]; solvent Acetone (400 μL)
  Results (salt forming with acid, 1M in EtOH): Crystal form
[1]; [4]
  Results (salt forming with acid, 1M in EtOH): Crystal form
[1]; solvent Methanol (400 μL)
  Results (salt forming with acid, 1M in EtOH): Crystal form
[1]; [5]
  Results (salt forming with acid, 1M in EtOH): Crystal form

## O=S(=O)(O)O [Sulfuric acid]
[1]; solvent 2-Butanone (250 μL)
  Results (salt forming with acid, 1M in EtOH): Crystal form
[1]; solvent Acetone (400 μL)
  Results (salt forming with acid, 1M in EtOH): Crystal form
[1]; [4]
  Results (salt forming with acid, 1M in EtOH): Crystal form
[1]; solvent Methanol (400 μL)
  Results (salt forming with acid, 1M in EtOH): Crystal form
[1]; [5]
  Results (salt forming with acid, 1M in EtOH): Crystal form

## N#Cc1cc2n(CC(=O)Nc3ccc(F)cn3)c(=O)c3ccc(C(F)(F)F)nc3n2n1 [crystal form II of the free base, 2-(2-cyano-5-oxo-8-(trifluoromethyl)pyrazolo[1,5-a]pyrido[3,2-e]pyrimidin-4(5H)-yl)-N-(5-fluoropyridin-2-yl)acetamide free base]
[3]; FaSSGF
  Solubility: 0.7 µg/mL (≈ 1.62 µM)
[3]; FaSSIF
  Solubility: 1.1 µg/mL (≈ 2.55 µM)
[3]; FeSSIF
  Solubility: 2.5 µg/mL (≈ 5.8 µM)
[3]; H2O
  Solubility: 0.6 µg/mL (≈ 1.39 µM)
[3]; USP Buffer pH 1
  Solubility: 0.6 µg/mL (≈ 1.39 µM)
[3]; USP Buffer pH 2
  Solubility: 0.6 µg/mL (≈ 1.39 µM)
[3]; USP Buffer pH 3
  Solubility: 1.1 µg/mL (≈ 2.55 µM)
[3]; USP Buffer pH 4
  Solubility: 1 µg/mL (≈ 2.32 µM)
[3]; USP Buffer pH 5
  Solubility: 0.8 µg/mL (≈ 1.85 µM)
[3]; USP Buffer pH 6
  Solubility: 0.6 µg/mL (≈ 1.39 µM)
[3]; USP Buffer pH 7
  Solubility: 0.5 µg/mL (≈ 1.16 µM)
[3]; USP Buffer pH 8
  Solubility: 0.5 µg/mL (≈ 1.16 µM)
